Assay results: patent publication US4272437A, “Antibacterial agents, and 4-thio azetidinone intermediates” (priority 1979, dated 1981)
In brackets after ≈: the same amount, converted by molar mass. Read-outs that look alike come from different tables or passages of the source.

Key:
E. coli A-20341-1 = assay: MIC, tube dilution, Escherichia coli A20341-1; type: cell-based; conditions: Escherichia coli, A203411; E. coli A20341-1; overnight 37° C.; read-out: Minimum Inhibitory Concentration (M.I.C.)
Description: (§1) Representative compounds of the present invention were subjected to in vitro antibiotic screening against a variety of microorganisms.

Pr. mirabilis A-9900 = assay: MIC, tube dilution, Proteus mirabilis A9900; type: cell-based; conditions: Proteus mirabilis, A9900, Proteus mirabilis A9900; overnight 37° C.; read-out: Minimum Inhibitory Concentration (M.I.C.)
Description: as §1

Str. faecalis A-20688 = assay: MIC, tube dilution, Streptococcus faecalis A20688; type: cell-based; conditions: Enterococcus faecalis, A20688, Str. faecalis A20688; overnight 37° C.; read-out: Minimum Inhibitory Concentration (M.I.C.)
Description: as §1

Str. pyogenes A-9604 = assay: MIC, tube dilution, Streptococcus pyogenes A9604; type: cell-based; conditions: Streptococcus pyogenes, A9604, Str. pyogenes A9604; overnight 37° C., Nutrient Broth; read-out: Minimum Inhibitory Concentration (M.I.C.)
Description: as §1

[1] = system: Klebsiella species A20468; assay: MIC, tube dilution, Klebsiella species A20468; type: cell-based; conditions: Klebsiella species (K. pneumoniae) A20468; overnight 37° C.; read-out: Minimum Inhibitory Concentration (M.I.C.)
Description: as §1

E. coli A-15119 = assay: MIC, tube dilution, Escherichia coli A15119; type: cell-based; conditions: Escherichia coli, A15119, E. coli A15119; overnight 37° C.; read-out: Minimum Inhibitory Concentration (M.I.C.)
Description: as §1

Ent. cloacae A-9659 = assay: MIC, tube dilution, Enterobacter cloacae A9659; type: cell-based; conditions: Enterobacter cloacae, A9659, Enterobacter cloacae A9659; overnight 37° C.; read-out: Minimum Inhibitory Concentration (M.I.C.)
Description: as §1

Ps. aeruginosa A-9843A = assay: MIC, tube dilution, Pseudomonas aeruginosa A9843A; type: cell-based; conditions: Pseudomonas aeruginosa, A9843A, read-out: Minimum Inhibitory Concentration (M.I.C.), Pseudomonas aeruginosa A9843A; overnight 37° C.
Description: as §1

Pr. vulgaris A-9716 = assay: MIC, tube dilution, Proteus vulgaris / Proteus mirabilis A9716; type: cell-based, Proteus vulgaris (name changed to Proteus mirabilis); conditions: Proteus vulgaris, overnight 37° C.
Description: as §1

Pr. morganii A-15153 = assay: MIC, tube dilution, Proteus morganii A15153; type: cell-based; conditions: Morganella morganii, A15153, Proteus morganii A15153; overnight 37° C.; read-out: Minimum Inhibitory Concentration (M.I.C.)
Description: as §1

Proteus rettgeri A21203 = assay: MIC, tube dilution, Proteus rettgeri A21203; type: cell-based; conditions: Providencia rettgeri, overnight 37° C., read-out: Minimum Inhibitory Concentration (M.I.C.)
Description: as §1

Staph. aureus A-9537 = assay: MIC, tube dilution, Staphylococcus aureus A9537; type: cell-based; conditions: Staphylococcus aureus, A9537, Staph. aureus A9537; overnight 37° C., Nutrient Broth; read-out: Minimum Inhibitory Concentration (M.I.C.)
Description: as §1

[2] = system: Staph. aureus A-9537 and 50% serum; assay: MIC, tube dilution, Staph. aureus A9537 + 50% serum; type: cell-based, Staphylococcus aureus; conditions: Staphylococcus aureus, overnight 37° C., read-out: Minimum Inhibitory Concentration (M.I.C.)
Description: as §1

Str. pneumoniae A-9585 = assay: MIC, tube dilution, Streptococcus pneumoniae A9585; type: cell-based; conditions: Streptococcus pneumoniae, A9585, Str. pneumoniae A9585; overnight 37° C., Nutrient Broth; read-out: Minimum Inhibitory Concentration (M.I.C.)
Description: as §1

Ent. cloacae A-9656 = assay: MIC, tube dilution, Enterobacter cloacae A9656; type: cell-based; conditions: overnight 37° C., read-out: Minimum Inhibitory Concentration (M.I.C.)
Description: as §1

Ps. aeruginosa A-21213 = assay: MIC, tube dilution, Pseudomonas aeruginosa A21213; type: cell-based; conditions: Pseudomonas aeruginosa A21213; overnight 37° C.; read-out: Minimum Inhibitory Concentration (M.I.C.)
Description: as §1

K. pneumoniae A-15130 = assay: MIC, tube dilution, Klebsiella pneumoniae A15130; type: cell-based; conditions: Klebsiella pneumoniae, A15130, K. pneumoniae A15130; overnight 37° C.; read-out: Minimum Inhibitory Concentration (M.I.C.)
Description: as §1

[3] = system: Staph. aureus (Pen-Res) A-9606; assay: MIC, tube dilution, Staphylococcus aureus A9606 (Pen-Res); type: cell-based; conditions: Staphylococcus aureus, overnight 37° C.
Description: as §1

[4] = system: Staph. aureus (Meth-Res) A-15097; assay: MIC, tube dilution, Staphylococcus aureus A15097 (Meth-Res); type: cell-based; conditions: Staphylococcus aureus, overnight 37° C.
Description: as §1

Ser. marcescens A-20019 = assay: MIC, tube dilution, Serratia marcescens A20019; type: cell-based; conditions: Serratia marcescens, A20019, Serratia marcescens A20019; overnight 37° C.; read-out: Minimum Inhibitory Concentration (M.I.C.)
Description: as §1

[5] = A9716, Proteus vulgaris / Proteus mirabilis A9716, read-out: Minimum Inhibitory Concentration (M.I.C.)
[6] = A21203, Proteus rettgeri A21203
[7] = Staph. aureus A9606 (Pen-Res), read-out: Minimum Inhibitory Concentration (M.I.C.)
[8] = A9716, read-out: Minimum Inhibitory Concentration (M.I.C.), Proteus vulgaris / Proteus mirabilis A9716
[9] = read-out: Minimum Inhibitory Concentration (M.I.C.), Staph. aureus A9606 (Pen-Res)
[10] = read-out: Minimum Inhibitory Concentration (M.I.C.), Staph. aureus A15097 (Meth-Res)

O=C(O)C1=C(c2cscn2)SC2CC(=O)N12 (stereo not shown) [Preparation 27, 2-(4'-Thiazolyl)penem-3-carboxylic Acid]
MIC (E. coli A-20341-1): 125 µg/mL (≈ 492 µM)
MIC (Pr. mirabilis A-9900): 4 µg/mL (≈ 15.7 µM)
MIC (Str. faecalis A-20688): 4 µg/mL (≈ 15.7 µM)
MIC (Str. pyogenes A-9604): 0.25 µg/mL (≈ 0.983 µM)
MIC [1]: > 125 µg/mL
MIC (E. coli A-15119): 8 µg/mL (≈ 31.5 µM)
MIC (Ent. cloacae A-9659): 125 µg/mL (≈ 492 µM)
MIC (Ps. aeruginosa A-9843A): 125 µg/mL (≈ 492 µM)
MIC (Pr. vulgaris A-9716; [5]): 4 µg/mL (≈ 15.7 µM)
MIC (Pr. morganii A-15153): 32 µg/mL (≈ 126 µM)
MIC (Proteus rettgeri A21203; [6]): 16 µg/mL (≈ 62.9 µM)
MIC (Staph. aureus A-9537): 0.5 µg/mL (≈ 1.97 µM)
MIC [2]: > 63 µg/mL
MIC (Str. pneumoniae A-9585): 0.13 µg/mL (≈ 0.511 µM)
MIC (Ent. cloacae A-9656; Enterobacter cloacae, A9656, Enterobacter cloacae A9656): 63 µg/mL (≈ 248 µM)
MIC (Ps. aeruginosa A-21213): 125 µg/mL (≈ 492 µM)
MIC (K. pneumoniae A-15130): 125 µg/mL (≈ 492 µM)
MIC [3, 7]: 8 µg/mL (≈ 31.5 µM)
MIC ([4]; Staph. aureus A15097 (Meth-Res), read-out: Minimum Inhibitory Concentration (M.I.C.)): 8 µg/mL (≈ 31.5 µM)
MIC (Ser. marcescens A-20019): 63 µg/mL (≈ 248 µM)

Cc1cc(CC2=C(C(=O)O)N3C(=O)CC3S2)on1 (stereo not shown) [Example 20]
MIC (E. coli A-20341-1): > 125 µg/mL
MIC (Pr. mirabilis A-9900): > 125 µg/mL
MIC (Str. faecalis A-20688): > 125 µg/mL
MIC (Str. pyogenes A-9604): 63 µg/mL (≈ 237 µM)
MIC [1]: > 125 µg/mL
MIC (E. coli A-15119): > 125 µg/mL
MIC (Ent. cloacae A-9659): > 125 µg/mL
MIC (Ps. aeruginosa A-9843A): 125 µg/mL (≈ 469 µM)
MIC (Pr. vulgaris A-9716; [8]): 125 µg/mL (≈ 469 µM)
MIC (Pr. morganii A-15153): 125 µg/mL (≈ 469 µM)
MIC (Proteus rettgeri A21203; Proteus rettgeri A21203): 125 µg/mL (≈ 469 µM)
MIC (Staph. aureus A-9537): > 125 µg/mL
MIC [2]: > 63 µg/mL
MIC (Str. pneumoniae A-9585): 8 µg/mL (≈ 30 µM)
MIC (Ent. cloacae A-9656; Enterobacter cloacae A9656): > 125 µg/mL
MIC (Ps. aeruginosa A-21213): 125 µg/mL (≈ 469 µM)
MIC (K. pneumoniae A-15130): > 125 µg/mL
MIC [3, 9]: > 125 µg/mL
MIC [4, 10]: > 125 µg/mL
MIC (Ser. marcescens A-20019): > 125 µg/mL

O=C(O)C1=C(Cc2cscn2)SC2CC(=O)N12 (stereo not shown) [Example 18, 2-(4'-Thiazolyl)methylpenem-3-carboxylic Acid]
MIC (E. coli A-20341-1): > 125 µg/mL
MIC (Pr. mirabilis A-9900): > 125 µg/mL
MIC (Str. faecalis A-20688): > 125 µg/mL
MIC (Str. pyogenes A-9604): > 125 µg/mL
MIC [1]: 125 µg/mL (≈ 466 µM)
MIC (E. coli A-15119): > 125 µg/mL
MIC (Ent. cloacae A-9659): > 125 µg/mL
MIC (Ps. aeruginosa A-9843A): 125 µg/mL (≈ 466 µM)
MIC (Pr. vulgaris A-9716; [8]): 125 µg/mL (≈ 466 µM)
MIC (Pr. morganii A-15153): 125 µg/mL (≈ 466 µM)
MIC (Proteus rettgeri A21203; Proteus rettgeri A21203): 125 µg/mL (≈ 466 µM)
MIC (Staph. aureus A-9537): 125 µg/mL (≈ 466 µM)
MIC [2]: > 63 µg/mL
MIC (Str. pneumoniae A-9585): 125 µg/mL (≈ 466 µM)
MIC (Ent. cloacae A-9656; Enterobacter cloacae A9656): > 125 µg/mL
MIC (Ps. aeruginosa A-21213): 125 µg/mL (≈ 466 µM)
MIC (K. pneumoniae A-15130): > 125 µg/mL
MIC [3, 9]: > 125 µg/mL
MIC [4, 10]: > 125 µg/mL
MIC (Ser. marcescens A-20019): > 125 µg/mL

Nc1ccccc1CC1=C(C(=O)O)N2C(=O)CC2S1 (stereo not shown) [Example 45, Sodium 2-(2'-Aminophenyl)methylpenem-3-carboxylate]
MIC (E. coli A-20341-1): 125 µg/mL
MIC (Pr. mirabilis A-9900): 32 µg/mL
MIC (Str. faecalis A-20688): 125 µg/mL
MIC (Str. pyogenes A-9604): 1 µg/mL
MIC [1]: 125 µg/mL
MIC (E. coli A-15119): 125 µg/mL
MIC (Ent. cloacae A-9659): 125 µg/mL
MIC (Ps. aeruginosa A-9843A): 125 µg/mL
MIC (Pr. vulgaris A-9716; [5]): 63 µg/mL
MIC (Pr. morganii A-15153): 125 µg/mL
MIC (Proteus rettgeri A21203; [6]): 63 µg/mL
MIC (Staph. aureus A-9537): 1 µg/mL
MIC [2]: 63 µg/mL
MIC (Str. pneumoniae A-9585): 0.5 µg/mL
MIC (Ent. cloacae A-9656; Enterobacter cloacae A9656): 125 µg/mL
MIC (Ps. aeruginosa A-21213): 125 µg/mL
MIC (K. pneumoniae A-15130): 125 µg/mL
MIC [3, 7]: 4 µg/mL
MIC [4, 10]: 125 µg/mL
MIC (Ser. marcescens A-20019): 125 µg/mL

CCOP(=O)(CCC1=C(C(=O)O)N2C(=O)CC2S1)OCC (stereo not shown) [Preparation 25, 2'-(2'-Diethylphosphono-1'-ethyl)penem-3-carboxylic Acid]
MIC (E. coli A-20341-1): 2 µg/mL (≈ 5.96 µM)
MIC (Pr. mirabilis A-9900): 8 µg/mL (≈ 23.9 µM)
MIC (Str. faecalis A-20688): 125 µg/mL (≈ 373 µM)
MIC (Str. pyogenes A-9604): > 125 µg/mL
MIC [1]: 4 µg/mL (≈ 11.9 µM)
MIC (E. coli A-15119): 8 µg/mL (≈ 23.9 µM)
MIC (Ent. cloacae A-9659): 16 µg/mL (≈ 47.7 µM)
MIC (Ps. aeruginosa A-9843A): 125 µg/mL (≈ 373 µM)
MIC (Pr. vulgaris A-9716; [8]): 63 µg/mL (≈ 188 µM)
MIC (Pr. morganii A-15153): 63 µg/mL (≈ 188 µM)
MIC (Proteus rettgeri A21203; Proteus rettgeri A21203): 32 µg/mL (≈ 95.4 µM)
MIC (Staph. aureus A-9537): 1 µg/mL (≈ 2.98 µM)
MIC [2]: 8 µg/mL
MIC (Str. pneumoniae A-9585): 125 µg/mL (≈ 373 µM)
MIC (Ent. cloacae A-9656; Enterobacter cloacae A9656): 16 µg/mL (≈ 47.7 µM)
MIC (Ps. aeruginosa A-21213): > 125 µg/mL
MIC (K. pneumoniae A-15130): 125 µg/mL (≈ 373 µM)
MIC [3, 9]: 32 µg/mL (≈ 95.4 µM)
MIC [4, 10]: 4 µg/mL (≈ 11.9 µM)
MIC (Ser. marcescens A-20019): 63 µg/mL (≈ 188 µM)
